Source: patent US6951647B2, “T cell binding ligand peptides and method of inducing a cellular immune response” (Cel-Sci Corporation, priority 2001, dated 2005)
Several values for one entry are separate records, joined by “and”; a condition that tells them apart may be missing. Equal entries are not always repeated.

Columns and labels:
modified HGP-30 [1] = assay: ELISA for antibody after antisera depletion of CD4 or CD8 cells (FIG. 2); type: in vivo, Mice; conditions: pretreatment with anti-CD4, day 28, p=0.002 (FIG. 2)
Excerpt: (§1) Select immunoglobulin preparations were obtained from Dr. Stephen Hoffmann, Malaria Program, U.S. Navy. […] This allows one to determine some parts of the nature of various cellular (e.g., T-cell) involvement in the early stage of immune system response with the LEAPS peptide-constructs. It is recognized, however, that this is only a temporary event since new cells are continuously being developed from stem cells and the animals become resistant to the reagents.
(§2) The animals are pretreated with the antisera as indicated for 5 days before the initial immunization with peptide-construct having SEQ ID NO:37 or SEQ ID NO:39 on […]. No pretreatment is done before the booster immunization on day 14 or DTH on day 26-28. The mice are then inoculated with the test antigen or saline (control) on day 26 in the left and right ears, respectively, and the DTH response is measured on day 28. The difference between the values for the test and saline control ears is calculated for each group of five animals along with the standard error of the mean (sem) and the results are plotted (see FIG. 1). Also shown in FIG. 1 are values for the untreated animals and animals immunized on day 14 only.
This example is similar to Example 2 but using a more sensitive ELISA test for antibody type. […] This was not the case, however, with pretreatment using anti-CD8 or normal rat IgG. […]

modified HGP-30 [2] = assay: ELISA antibody screening of sera of immunized mice on modified HGP-30; type: in vivo; conditions: for ELISA test antigen Modified HGP-30: day 42 test bleeding
Experimental: Mice in groups (5-10 animals per group as designated) are immunized with the LEAPS constructs (25 μg/dose) of SEQ ID NO's:37, 38 and 39, in 0.2 mL emulsified 1:1 with adjuvant (Seppic's ISA-51 or Corixa's microfluidized MPL S/E) on days 0 and 14. Mice are evaluated by Delayed Type of Hypersensitivity (DTH) by inoculation on day 26 with 20 μl of a solution of saline or mH (SEQ ID NO:6) (25 μg in saline) in the left or right ear respectively. The DTH response is determined by measurement of the ear thickness 48 hours later and expressed as increase in ear thickness (mm) of experimental ear compared to that of the control ear. Individual animal sera are collected for measurement of antibody on day 28, 42, 63 and 77. Sera from individual animals and group pools are evaluated for specific anti-mH antibody, for total antibody, IgG1, IgG2a and IgG3 antibody isotype and cross clade titer at selected time points as indicated. […]

E Clade [3] = assay: ELISA cross clade recognition by sera of immunized mice, E Clade; type: in vivo; conditions: for ELISA test antigen E Clade: day 42 test bleeding, Group Average
Experimental: (§3) Mice in groups (5-10 animals per group as designated) are immunized with the LEAPS constructs (25 μg/dose) of SEQ ID NO's:37, 38 and 39, in 0.2 mL emulsified 1:1 with adjuvant (Seppic's ISA-51 or Corixa's microfluidized MPL S/E) on days 0 and 14. Mice are evaluated by Delayed Type of Hypersensitivity (DTH) by inoculation on day 26 with 20 μl of a solution of saline or mH (SEQ ID NO:6) (25 μg in saline) in the left or right ear respectively. The DTH response is determined by measurement of the ear thickness 48 hours later and expressed as increase in ear thickness (mm) of experimental ear compared to that of the control ear. Individual animal sera are collected for measurement of antibody on day 28, 42, 63 and 77. Sera from individual animals and group pools are evaluated for specific anti-mH antibody, for total antibody, IgG1, IgG2a and IgG3 antibody isotype and cross clade titer at selected time points as indicated.
The mouse sera for the ELISA was used at a dilution of 1:200. Again, clearly, the construct provides higher signals indicative of higher levels of the antibodies that recognized other clades besides the parental one (Clade B) of mH.
A cross clade analysis for pools of day 42 test bleedings from the same groups as used in Table 3, were obtained and the results are shown in Table 4.

E Clade [4] = assay: as above; type: in vivo; conditions: day 42 test bleeding, individual mouse
modified HGP-30 [5] = assay: Delayed Type Hypersensitivity (DTH) ear thickness response with antisera depletion of CD4 or CD8 cells; type: in vivo, Mice
Experimental: as §3, §1, §2
The DTH (Delayed Type Hypersensitivity) data is statistically significant with a t-test of 0.05 for SEQ ID NO:39 and anti-CD8. The DTH for pretreatment of SEQ ID NO:37 immunized mice with anti-CD4 was just above the cutoff limit for statistical significance due to a weaker DTH response and small group size.

Peptide G = assay: Specificity analysis for the TCBL carrier, ELISA plates coated with Peptide G; type: in vivo, Mice; conditions: for A 490 1:200 dilution on plates coated with Peptide G: Average
Experimental: as §3
A specificity analysis for the TCBL or KLH carrier for pools of day 42 test bleedings from the G-mH, G′-mH and mH/KLH, using either MPL S/E or ISA51 as adjuvant, was carried out (all sera assayed at a dilution of 1:200) and the results are shown in Table 5. […] This observation is especially significant for vaccines used on a repetitive basis, such as, either a vaccine that requires more frequent intervals between boosters for maintenance of cellular reactivity or as a therapeutic vaccine.

[6] = day 63 test bleeding, sera 1:200, individual mouse
[7] = Day 14 Injection Only (immunized with construct on day 14 only), average of group of 5 mice
[8] = Treatment Anti CD4, daily for 5 days before immunization, average of group (5 mice)
[9] = Treatment Anti CD8, daily for 5 days before immunization, average of group of 5 mice
[10] = Treatment None, average of group (5 mice), ISA 51 adjuvant
[11] = Treatment Normal rat IgG, daily for 5 days before immunization, average of group (5 mice)

Substance: DGQ EEK AGV VST GLI GGG ATL YSV HQR IDV KDT KEA LEK IEE EQN KS (DGQEEKAGVVSTGLIGGGYLSGANLNL) [SEQ ID NO: 57, Peptide G′ linked by GGG spacer to modified HGP-30 (mH)]
- Antibody detection by ELISA after antisera depletion (modified HGP-30 [1]): completely eliminated any antibodies from being detected
- A 490 1:200 dilution on plates coated with modified HGP-30 (modified HGP-30 [2]; day 42, first set of groups (animals 4637-4648, 4674-4678), individual animal): 2.178 A 490 and 1.411 A 490 and 2.314 A 490 and 2.555 A 490 and 2.404 A 490 and 2.273 A 490
- A 490 1:200 dilution on plates coated with modified HGP-30 (modified HGP-30 [2]; day 42, first set of groups, Average): 2.189 A 490
- A 490 1:200 dilution on plates coated with modified HGP-30 (modified HGP-30 [2]; day 42, second set of groups (animals 4662-4673, 4679-4683), individual animal): 1.968 A 490 and 1.422 A 490 and 1.755 A 490 and 2.450 A 490 and 2.403 A 490 and 1.399 A 490
- A 490 1:200 dilution on plates coated with modified HGP-30 (modified HGP-30 [2]; day 42, second set of groups, Average): 1.899 A 490
- ELISA test antigen Modified HGP-30 (modified HGP-30 [2]; group (A), Group Average): 2.433
- ELISA test antigen Modified HGP-30 (modified HGP-30 [2]; group (A), individual mouse): 2.307 and 1.589 and 2.432 and 2.867 and 2.627 and 2.780
- ELISA test antigen Modified HGP-30 (modified HGP-30 [2]; group (B), Group Average): 2.672
- ELISA test antigen Modified HGP-30 (modified HGP-30 [2]; group (B), individual mouse): 2.330 and 2.213 and 2.534 and 3.358 and 3.030 and 2.571
- ELISA signal on modified HGP-30 (modified HGP-30 [2]; [6]): 2.737 and 2.471 and 2.569 and 2.093 and 2.512 and 3.115 and 3.153 and 2.922 and 2.236 and 2.534
- ELISA test antigen E Clade (E Clade [3]; group (A)): 0.035
- ELISA test antigen E Clade (E Clade [3]; group (B)): 0.094
- ELISA signal on E Clade (E Clade [3]; [6]): 0.933 and 0.030 and 0.113 and 0.041 and 0.000 (2×) and 0.029 and 0.068 and 0.006 and 0.271
- ELISA test antigen E Clade (E Clade [4]; group (A)): 0.092 and 0.000 (3×) and 0.018 and 0.101
- ELISA test antigen E Clade (E Clade [4]; group (B)): 0.000 (2×) and 0.054 and 0.358 and 0.113 and 0.037
- Left Ear thickness, inoculated day 26 with HGP-30, measured after 48 hours (modified HGP-30 [5]; [7]): 0.234 mm
- Right Ear thickness, inoculated day 26 with saline, measured after 48 hours (modified HGP-30 [5]; [7]): 0.222 mm
- DTH % increase (L-R)/R (modified HGP-30 [5]; Day 14 Injection Only, average of group of 5 mice): 5.10%
- Left Ear thickness, inoculated day 26 with HGP-30, measured after 48 hours (modified HGP-30 [5]; [8]): 0.252 mm
- Right Ear thickness, inoculated day 26 with saline, measured after 48 hours (modified HGP-30 [5]; [8]): 0.237 mm
- DTH % increase (L-R)/R (modified HGP-30 [5]; Treatment Anti CD4, average of group (5 mice)): 6.10%
- Left Ear thickness, inoculated day 26 with HGP-30, measured after 48 hours (modified HGP-30 [5]; [9]): 0.290 mm
- Right Ear thickness, inoculated day 26 with saline, measured after 48 hours (modified HGP-30 [5]; [9]): 0.232 mm
- DTH % increase (L-R)/R (modified HGP-30 [5]; Treatment Anti CD8, average of group of 5 mice): 25.00%
- DTH % increase (L-R)/R (modified HGP-30 [5]; Treatment None, average of group (5 mice)): 22.10%
- Left Ear thickness, inoculated day 26 with HGP-30, measured after 48 hours (modified HGP-30 [5]; [10]): 0.274 mm
- Right Ear thickness, inoculated day 26 with saline, measured after 48 hours (modified HGP-30 [5]; [10]): 0.224 mm
- Left Ear thickness, inoculated day 26 with HGP-30, measured after 48 hours (modified HGP-30 [5]; [11]): 0.278 mm
- Right Ear thickness, inoculated day 26 with saline, measured after 48 hours (modified HGP-30 [5]; [11]): 0.232 mm
- DTH % increase (L-R)/R (modified HGP-30 [5]; Treatment Normal rat IgG, average of group (5 mice)): 19.90%
- Type of cells required for a DTH response (modified HGP-30 [5]; cell specific antisera as depletion reagent for the primary immunization (FIG. 1)): requires the presence and presumably activation of CD4+ but not CD8+ cells
- A 490 1:200 dilution on plates coated with Peptide G (Peptide G; day 42, first set of groups): 0.080 A 490
- A 490 1:200 dilution on plates coated with Peptide G (Peptide G; day 42, second set of groups): 0.062 A 490
- Reactivity toward the delivery vehicle TCBL (Peptide G; day 42 sera at 1:200, Table 5, in words): minimal reactivity
